US7772271B2 (priority 2004, dated 2010)

Row | SMILES | melting point
1 | CC(C)(C)OC(=O)Nc1ccc(-c2c(C#N)c3ccc(N4CCSCC4)cc3n2C2CCC2)cc1 [Compound 2777] | 191 °C (dec.)
2 | CCn1c(-c2ccc(OC(=O)N(C)CCOC)cc2)c(C#N)c2ccc(OC)cc21 [Compound 1385] | 122 to 127 °C
3 | C[C@@H](OC(=O)Nc1ccc(-c2c(C#N)c3ccc(OC4CCOCC4)cc3n2C2CC2)cc1)C1CC1 [Compound 2712] | 149 to 151 °C
4 | CCCOC(=O)Nc1ccc(-c2c(C#N)c3ccc(OCCOC)cc3n2CC)cc1 [Compound 1369] | 154 to 156 °C
5 | CCOc1ccc2c(C#N)c(-c3ccc(NC(=O)OCc4cnccn4)cc3)n(C3CCC3)c2c1 [Compound 1426] | 159 to 164 °C
6 | CCCS(=O)(=O)Nc1ccc(-c2c(C#N)c3ccc(OCCO)cc3n2C2CCC2)cc1 [Compound 1451] | 163 to 164 °C
7 | CCN(CC)C(=O)c1ccc2c(C#N)c(-c3ccc(NC(=O)O[C@H](C)C4CC4)cc3)n(C3CCC3)c2c1 [Compound 2272] | 166 to 168 °C
8 | COCCOc1ccc2c(C#N)c(-c3ccc(C(=O)NCCN4CCOCC4)cc3)n(C3CCC3)c2c1 [Compound 2844] | 169 to 170 °C
9 | CCOC(CCOc1ccc2c(C#N)c(-c3ccc(NC(=O)OC(C)C)cc3)n(C3CCC3)c2c1)OCC [Compound 2779] | 146 to 150 °C
10 | CC(OC(=O)Nc1ccc(-c2c(C#N)c3ccc(OC4CCOC4)cc3n2C2CC2)cc1)C(C)(C)C (stereo not shown) [Compound 1447] | 220 to 222 °C
11 | N#Cc1c(-c2ccc(NC(=O)OC3CCC3)cc2)n(C2CCC2)c2cc(OC3COCOC3)ccc12 [Compound 2872] | 215 to 216 °C
12 | N#Cc1c(-c2ccc(OC(=O)N3CCOCC3)cc2)n(C2CCC2)c2cc(OC3CCOCC3)ccc12 [Compound 2814] | 178 to 179 °C
13 | COCCOc1ccc2c(C#N)c(-c3ccc(NC(=O)OCc4ccccc4)cc3)n(C3CCC3)c2c1 [Compound 1402] | 144 to 145 °C
14 | CCCN(CCC)C(=O)c1ccc2c(C#N)c(-c3ccc(NC(=O)O[C@H](C)C4CC4)cc3)n(C3CCC3)c2c1 [Compound 2271] | 160 to 163 °C
15 | C[C@@H](OC(=O)Nc1ccc(-c2c(C#N)c3ccc(OCCF)cc3n2C2CCC2)cc1)C(F)(F)F [Compound 2879] | 198 to 200 °C
16 | N#Cc1c(-c2ccc(NC(=O)OCC3CC3)cc2)n(C2CCC2)c2cc(OC3COCOC3)ccc12 [Compound 2860] | 197 to 198 °C
17 | CC(C)OC(=O)Nc1ccc(-c2c(C#N)c3ccc(OC4CCN(Cc5ccccc5)C4)cc3n2C2CCC2)cc1 (stereo not shown) [Compound 1442] | 144 to 145 °C
18 | CN(C)C(=O)c1ccc2c(C#N)c(-c3ccc(NS(=O)(=O)C4CC4)cc3)n(C3CCC3)c2c1 [Compound 2297] | 235 to 237 °C
19 | C[C@@H](OC(=O)Nc1ccc(-c2c(C#N)c3ccc(OCCCS(C)(=O)=O)cc3n2C2CCC2)cc1)C1CC1 [Compound 2694] | 155 to 160 °C
20 | CCn1nnc(COc2ccc3c(C#N)c(-c4ccc(NC(=O)OC(C)C)cc4)n(C4CCC4)c3c2)n1 [Compound 2667] | 184 to 190 °C
21 | CCC(CC)NS(=O)(=O)Nc1ccc(-c2c(C#N)c3ccc(OC4CCOCC4)cc3n2C2CCC2)cc1 [Compound 2836] | 193 to 195 °C
22 | CCn1c(-c2ccc(NC(=O)OCC(C)C)cc2)c(C#N)c2ccc(OCCOC)cc21 [Compound 1370] | 145 to 148 °C

Results, then the compound that gave them:

Row | melting point | SMILES
23 | 169 to 170 °C | COCCOc1ccc2c(C#N)c(-c3ccc(C(=O)N[C@H](C)c4ccc(F)cc4)cc3)n(C3CCC3)c2c1 [Compound 3132]
24 | 225 °C (dec.) | Cc1noc(C)c1-c1ccc2c(C#N)c(-c3ccc(NC(=O)O[C@H](C)C4CC4)cc3)n(C3CCC3)c2c1 [Compound 3317]
25 | 105 to 108 °C | N#Cc1c(-c2ccc(NCCCc3ccccc3)cc2)n(C2CCC2)c2cc(OC3CCOCC3)ccc12 [Compound 3118]
26 | 246 to 248 °C | CC(C)(C)c1csc(Nc2ccc(-c3c(C#N)c4ccc(OC5CCOCC5)cc4n3C3CCC3)cc2)n1 [Compound 3151]
27 | 189 to 191 °C | N#Cc1nccnc1Oc1ccc2c(C#N)c(-c3ccc(NS(=O)(=O)NCC4CC4)cc3)n(C3CC3)c2c1 [Compound 3211]
28 | 169 to 173 °C | N#Cc1c(-c2ccc(NCC3CCCCC3)cc2)n(C2CCC2)c2cc(OCCF)ccc12 [Compound 3241]
29 | 162 to 164 °C | C[C@@H](OC(=O)Nc1ccc(-c2c(C#N)c3ccc(OC4CCOCC4)cc3n2C2CC2)cc1)C(F)(F)F [Compound 2910]
30 | 183 to 184 °C | CCOc1ccc(-c2c(C#N)c3ccc(N4CCN(C(=O)OC(C)(C)C)CC4)cc3n2CC)cc1 [compound 1337, 4-[3-cyano-2-(4-ethoxyphenyl)-1-ethylindol-6-yl]piperazine-1-carboxylic acid tert-butyl ester]
31 | 215 to 217 °C | CCCS(=O)(=O)Nc1ccc(-c2c(C#N)c3ccc(Oc4ncccc4Cl)cc3n2C2CC2)cc1 [Compound 2943]
32 | 196 to 199 °C | CC(C)OC(=O)Nc1ccc(-c2c(C#N)c3ccc(N4CCOCC4)cc3n2C2CCC2)cc1Cl [Compound 3011]
33 | 205 to 210 °C | C[C@@H](OC(=O)Nc1ccc(-c2c(C#N)c3ccc(OC4CCS(=O)(=O)CC4)cc3n2C2CC2)cc1)C1CC1 [Compound 3199]
34 | 212 to 223 °C | N#Cc1c(-c2ccc(N3CCCCS3(=O)=O)cc2)n(C2CCC2)c2cc(Oc3ncccn3)ccc12 [Compound 3217]
35 | 181 to 185 °C | CCc1cnc(Oc2ccc3c(C#N)c(-c4ccc(NC(=O)O[C@H](C)C5CC5)cc4C)n(C4CCC4)c3c2)nc1 [Compound 3058]
36 | 192 to 194 °C | CCNC(=O)Oc1ccc2c(C#N)c(-c3ccc(NC(=O)O[C@H](C)C4CC4)cc3)n(C3CCC3)c2c1 [Compound 3170]
37 | 197 to 202 °C | C[C@@H](OC(=O)Nc1ccc(-c2c(C#N)c3ccc(N4CCCC4)cc3n2C2CC2)cc1)C1CC1 [Compound 2986]
38 | 223 °C (dec.) | C[C@@H](OC(=O)Nc1ccc(-c2c(C#N)c3ccc(Oc4nccnc4C#N)cc3n2C2CC2)cc1)C1CC1 [Compound 3262]
39 | 170 to 180 °C | CC(C)OC(=O)Nc1ccc(-c2c(C#N)c3ccc(N4CCOCC4)cc3n2CC2CC2)cc1 [Compound 2891]
40 | 138 to 139 °C | CCCS(=O)(=O)Nc1ccc(-c2c(C#N)c3cc(C(=O)N(C)CC)ccc3n2C2CCC2)cc1 [Compound 3096]
41 | 241 to 245 °C | N#Cc1c(-c2ccc(N3CCCS3(=O)=O)cc2)n(CC2CC2)c2cc(N3CCOCC3)ccc12 [Compound 2921]
42 | 183 to 185 °C | C[C@@H](OC(=O)Nc1ccc(-c2c(C#N)c3ccc(Oc4ncccc4C#N)cc3n2C2CC2)cc1)C1CC1 [Compound 3263]
43 | 280 to 281 °C | Cc1cccn(-c2ccc3c(C#N)c(-c4ccc(NC(=O)O[C@H](C)C5CC5)cc4)n(C4CCC4)c3c2)c1=O [Compound 3338]
44 | 223 to 225 °C | Cc1csc(Nc2ccc(-c3c(C#N)c4ccc(Oc5ncccn5)cc4n3C3CC3)cc2)n1 [Compound 3268]
45 | 238 to 243 °C | CSc1nccc(Oc2ccc3c(C#N)c(-c4ccc(NC(=O)NC(C)C)cc4)n(C4CCC4)c3c2)n1 [Compound 3092]
46 | 232 to 235 °C | CCCS(=O)(=O)Nc1ccc(-c2c(C#N)c3ccc(Oc4ncccc4C#N)cc3n2CC2CC2)cc1 [Compound 3250]
